From ChEMBL document CHEMBL1201862, “PubChem BioAssay data set” (2004)
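These data come from cells grown in 96-well plates and exposed to compound for 48 hours at five concentrations. Abbreviation: GI50, concentration required for 50% inhibition of growth.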 The source made the active and inactive calls. Cut-off read from the data, not from the text of the source: active = GI50 up to about 1.1 µM and inactive = higher.

Key:
Experiment in all cases: NCI tumour cell line growth inhibition, 48 h
MDA-N = system: MDA-N
T47D = system: T47D
DLD-1 = system: DLD-1
DMS-273 = system: DMS-273
KM-20L2 = system: KM-20L2
LXFL 529 = system: LXFL 529
RXF 631 = system: RXF 631
SNB-78 = system: SNB-78
XF498 = system: XF498

Measured: GI50

CCOC(=O)c1c(N=C(S)Nc2ccccc2)sc2c1CCN(C)C2
inactive: MDA-N > 100 µM | T47D > 100 µM

COc1ccc(-c2c3c(nc4nc(SCCc5ccccc5)nc(N)c24)CCCC3)cc1OC
inactive: MDA-N > 100 µM | T47D > 100 µM

O=C(N/N=C/c1ccccc1)c1c(F)c(F)c(F)c(F)c1F
inactive: MDA-N 28.8 µM | T47D > 100 µM

C[C@H](O)C(=O)SC[C@H](NC(=O)CC[C@@H](N)C(=O)O)C(=O)NCC(=O)O
inactive: DLD-1 > 100 µM | DMS-273 > 100 µM | KM-20L2 > 100 µM | LXFL 529 > 100 µM

N#CCc1c(F)c(F)c(F)c(F)c1F
inactive: MDA-N > 100 µM | T47D > 100 µM

CC[C@]12C=CCN3CC[C@@]4(c5cc(Br)c(OC)c([N+](=O)[O-])c5N(C)[C@H]4[C@@](O)(C(=O)OC)[C@@H]1OC(C)=O)[C@@H]32
inactive: MDA-N 37.2 µM | T47D 50.4 µM

CC(C)=CC1(C)/C(=N\O)C(C)(CC(C)C)C(=O)N1O (stereo not drawn)
inactive: DLD-1 > 100 µM | DMS-273 > 100 µM | KM-20L2 > 100 µM | LXFL 529 > 100 µM | RXF 631 > 100 µM | SNB-78 > 100 µM | XF498 11.3 µM

CCOC(=O)NC(OCc1ccccc1)(C(=O)OC)C(F)(F)F (stereo not drawn)
inactive: MDA-N > 100 µM | T47D > 100 µM

C/C=C/C1=CC(=O)C(O)C1O (stereo not drawn)
inactive: DLD-1 30.4 µM | DMS-273 25.9 µM | KM-20L2 28.2 µM | SNB-78 57.8 µM | XF498 18.5 µM

CC1CC/C(=C\c2ccc(Cl)cc2)C(=O)/C1=C\c1ccc(Cl)cc1 (stereo not drawn)
inactive: MDA-N 51.2 µM | T47D 58.9 µM

COc1ccc(/N=C(\C)c2ccncc2)cc1
inactive: MDA-N > 100 µM | T47D > 100 µM

CCCCCCCSc1nc2c(C(=O)OCC)ncn2c2ccccc12
inactive: DMS-273 > 100 µM | KM-20L2 > 100 µM | LXFL 529 > 100 µM | XF498 > 100 µM

O=C(c1nc2ccc(Cl)cc2nc1O)C(O)c1ccccc1 (stereo not drawn)
inactive: DLD-1 > 100 µM | DMS-273 98.6 µM | KM-20L2 76 µM | LXFL 529 32.7 µM | SNB-78 > 100 µM

O=C(Nc1c(C(=O)NC2CCCCC2)[nH]c(=O)[nH]c1=O)c1ccc(Cl)cc1
inactive: DLD-1 > 100 µM | LXFL 529 > 100 µM | XF498 > 100 µM

N#C/C(=C1/Sc2c(nc[nH]c2=O)N1c1ccccc1)c1nc2ccccc2[nH]1
inactive: DLD-1 > 100 µM | DMS-273 > 100 µM | KM-20L2 > 100 µM | LXFL 529 > 100 µM | SNB-78 > 100 µM | XF498 > 100 µM

Cc1csc(/N=C(/NCCN2CCOCC2)Nc2nc(C)cs2)n1
inactive: DLD-1 > 100 µM | DMS-273 > 100 µM | KM-20L2 > 100 µM | SNB-78 > 100 µM | XF498 > 100 µM

COC(=O)C(C/C=C(\C)c1ccc(Cl)cc1)C(C)=O (stereo not drawn)
inactive: DLD-1 57.1 µM | DMS-273 32.7 µM | KM-20L2 35.9 µM | SNB-78 > 56.8 µM | XF498 > 65.8 µM

Cn1cc(NC(=O)[C@H]2CCC(N)=N2)cc1C(=O)NCCC(=N)N
inactive: DLD-1 > 100 µM | DMS-273 > 100 µM | KM-20L2 > 100 µM | LXFL 529 > 100 µM | SNB-78 > 100 µM | XF498 > 100 µM

CCOC(=O)c1cc(C2CCN(Cc3ccccc3)C2=S)c(C(=O)C=[N+]=[N-])[nH]1 (stereo not drawn)
inactive: MDA-N 21.1 µM

Cc1ccc(NC(=O)C(Cc2c[nH]c3ccccc23)NC(=O)Oc2ccccc2)cc1C (stereo not drawn)
inactive: MDA-N 55.8 µM | T47D 39.5 µM

Fc1ccc2c(c1)SC1=Nc3sc4cc(F)ccc4[n+]3CN12
inactive: T47D 13.7 µM

CCO[C@]12C[C@H](OC)[C@@]3(O)CC(C1[C@H]3O)C13C4C2[C@H](OC)C1[C@](COC)(CN4CC)[C@H](O)C[C@@H]3OC (stereo partly drawn)
inactive: DLD-1 > 100 µM | DMS-273 > 100 µM | KM-20L2 > 100 µM | LXFL 529 > 100 µM | SNB-78 > 100 µM

C=CC(C)C1(CCCOCc2ccccc2)C(=S)N2CCC3(CC24CCCC14)OCCO3 (stereo not drawn)
inactive: DLD-1 54.6 µM | DMS-273 10.3 µM | KM-20L2 62.2 µM | LXFL 529 6.1 µM | SNB-78 9.48 µM | XF498 3.06 µM

Cc1cc2cc3c(C)cc(=O)oc3c(C)c2o1 [TRIOXSALEN]
inactive: MDA-N > 100 µM | T47D > 100 µM
